Where two headings read alike, the source gives them in different places.

The assay deals with sebocytes. The assay can be described thus: In Vitro sebocyte Lipogenesis Assay (14-C acetate incorporation into lipid). The class given is cell-based, Human. An excerpt:
Dermatologic disorders, chronoaging and environmental abuse all have some relationship to sebum production. The present example reports an in vitro analysis of sebum suppression by use of a combination of salicylate ester and retinoid.
Human sebaceous glands were isolated from the nose of a person and cultured using submerged tissue culture techniques (Bajor et al, J. Invest, Dermatol, 102:1994. P. 564). These sebocytes accumulate intracellular lipid droplets characteristic of mature human sebum.
Harvested and passaged sebocytes were added to each well of a 48 well tissue culture plate and incubated at 37°C in the presence of 7.5% CO2 for 14 days. The growth medium was changed three times per week. On the day of experimentation, the growth medium was removed and the sebocytes washed three times with phosphate buffered saline (PBS). Fresh PBS in 0.5 ml amount was added to each well and 10 microliters of active agent speculated to inhibit lipogenesis. Triplicate wells were utilized for each sample. […] The cultures were incubated at 37°C/7.5% CO2 for 30 minutes. Radioactive label was prepared by adding 100 ul of 14-C labelled acetic acid (Amersham, sodium salt, specific activity of 56 mCi/mmol) to 10 mL of 50 mM sodium acetate buffer. Then 50 ul was added to each well containing the sebocytes and active agents. The cultures were returned to the incubator for 4 hours. Thereafter the treatments and label were removed and the sebocytes rinsed three times with fresh PBS. Sebocytes were harvested and 10 microliters removed and set aside for protein assessment. The remaining samples containing the 14-C label were extracted and the label counted using a Beckman scintillation counter. Triplicates were performed for each sample.
For each 48 well tissue culture plate, 16 samples could be analyzed. Of these, 1 sample was reserved for PBS, 1 sample for DMSO, and 1 sample for phenol red leaving 13 remaining samples. When TDS (tridecyl salicylate) was analyzed in the presence of other compounds, an additional set of wells was used for measuring the effects of TDS alone. When multiple 48 well plates were used, TDS was included in each plate.

[1] abbreviates: combination with tridecyl salicylate, conclusion from Tables VIII-X.

On to `CC1=C(/C=C/C(C)=C/C=C/C(C)=C/CO)C(C)(C)CCC1` [Retinol], for which, for the setting “similar trials with retinol instead of retinyl linoleate, retinol at very low levels”, the “activity with tridecyl salicylate (synergistic or additive)” value (“activity with tridecyl salicylate” for short) is “synergistic”.

As to `CCCCC/C=C\C/C=C\CCCCCCCC(=O)OC/C=C(C)/C=C/C=C(C)/C=C/C1=C(C)CCCC1(C)C` [Retinyl Linoleate, retinyl linoleate], the inhibition at 10 µM was -15% (Homo sapiens, Table IX, Retinyl Linoleate 10 uM alone, read-out: Retinyl Linoleate % Actual Reduction (SD)) and 13.8% (Homo sapiens, Table VIII, Retinyl Linoleate 10 uM alone, read-out: Retinyl Linoleate % Actual Reduction (SD)). Also, the inhibition at 50 µM (Homo sapiens, Table IX, Retinyl Linoleate 50 uM alone, read-out: Retinyl Linoleate % Actual Reduction (SD)) is -7.4%. The inhibition at 100 µM reads like this: (Homo sapiens, Table IX, Retinyl Linoleate 100 uM alone, read-out: Retinyl Linoleate % Actual Reduction (SD)) 1.9%; (Homo sapiens, Table VIII, Retinyl Linoleate 100 uM alone, read-out: Retinyl Linoleate % Actual Reduction (SD)) 20.3%. For the same compound, the inhibition at 0.1 µM (Homo sapiens, Table VIII, Retinyl Linoleate 100 nM alone, read-out: Retinyl Linoleate % Actual Reduction (SD)) stood at 4.4%. Moreover, the inhibition at 1 µM (Homo sapiens, Table VIII, Retinyl Linoleate 1 uM alone, read-out: Retinyl Linoleate % Actual Reduction (SD)) turned out to be 6%. Further, under setting [1], the “activity with tridecyl salicylate” value is recorded as “synergistic activity”.

For `CCCCCCCCCCCCCCCC(=O)OC/C=C(C)/C=C/C=C(C)/C=C/C1=C(C)CCCC1(C)C` [Retinyl Palmitate, retinyl palmitate, reference compound], the inhibition at 10 µM (Homo sapiens, Table X, Retinyl Palmitate 10 uM alone, read-out: Retinyl Palmitate % Actual Reduction (SD)) is 12.2%. In addition, the inhibition at 100 µM (Homo sapiens, Table X, Retinyl Palmitate 100 uM alone, read-out: Retinyl Palmitate % Actual Reduction (SD)) stood at 12%. For the same compound, the “activity with tridecyl salicylate” value under setting [1] is on record as “only an additive effect”.

Take `CCCCCCCCCCCCCOC(=O)c1ccccc1O` [TDS, tridecyl salicylate]: where the note is “Homo sapiens, Table IX, 50 uM TDS alone, read-out: Reduction”, the inhibition at 50 µM came to 17.9%. Moreover, the inhibition at 100 µM reads like this: (Homo sapiens, Table IX, 100 uM TDS alone, read-out: Reduction) 30.8%; (Homo sapiens, Table X, 100 uM TDS alone, read-out: Reduction) 38.7%. In addition, for the setting “Homo sapiens, Table VIII, 10 uM TDS alone, read-out: Reduction”, the inhibition at 10 µM came to 19.7%.

(Values after patent publication EP0881896B1, “SKIN TREATMENT WITH SALICYLIC ACID ESTERS AND RETINOIDS” (FD MANAGEMENT, INC., priority 1996, dated 1997).)
